Data: patent publication US20220227762A1, “AMIDE-SUBSTITUTED IMIDAZO COMPOUNDS AS SELECTIVE INHIBITORS OF INDOLEAMINE 2,3-DIOXYGENASES” (BEIGENE, LTD., priority 2019, published 2022)
Read-outs that look alike come from different tables or passages of the source.

Key:
plasma protein = experiment: Plasma Protein Binding Assay (equilibrium dialysis); assay type: in vitro ADME; conditions: 50% plasma, Human plasma, 37° C., read-out: Plasma Protein Binding assay (fu %) Human
Method: Plasma Protein Binding Assay:
To evaluate the plasma protein binding extent, the bound (fb) and unbound (fu) fractions of test compound will be determined in vitro by equilibrium dialysis approach, using a 96-well dialysis device (HT Dialysis, Gales Ferry, Conn., USA). The equilibrium dialysis will be conducted in duplicate. A hundred and fifty μL of 50% plasma spiked with the test compound (final concentration of 5 μM) will be added into the donor side and 150 μL of Phosphate Buffer (PB) (0.002% Tween-80) into the corresponding receiving side. The device will be then sealed with adhesive film and shook at 80 rpm in the water bath at 37° C. for 6 h. At the end of incubation, 10 μL plasma sample will be transferred from the donor side into a 1.5 mL microcentrifuge tube, added with 90 μL PB (0.002% Tween-80), vortexed well and proteins precipitated by acetonitrile containing internal standard (IS). Ninety μL of PB (0.002% Tween-80) sample will be transferred from the receiver side into a 1.5 mL microcentrifuge tube, added with 10 μL 50% blank plasma, vortexed well and proteins precipitated by acetonitrile containing IS.
For recovery check, […] of the donor side loading samples will be aliquoted into a 1.5 mL microcentrifuge tube (in duplicate), added with 90 μL PB (0.002% Tween-80), vortexed well and proteins precipitated by acetonitrile containing IS.
For plasma stability check, 10 μL of the donor side loading samples will be aliquoted into a 1.5 mL microcentrifuge tube (in duplicate), incubated in the water bath at 37° C. for 6 h, added with 90 μL PB (0.002% Tween-80) solution at the end of the incubation, vortexed well and proteins precipitated by acetonitrile containing IS.
Appropriate LC-MS/MS methods will be developed for the analysis of the test or control compounds in the incubates.
The unbound fraction (fu) of the test compound and positive control compounds in 50% plasma will be calculated using the following equations.
Where CR is the area ratio of the test compounds to the IS in the receiving side, CD is the area ratio of the test compound to the IS in the corresponding donor side and D is the dilution factor of plasma.

IDO1 = molecular target: T1, IDO1 (Homo sapiens, UniProt P14902); experiment: HeLa Cell-Based IDO1 Kyn (Kynurenine) Production Assay
T1 construct: endogenous in cells; host or cells: HeLa cells (American Type Culture Collection), induced with human recombinant IFN-γ
T1 sequence (P14902 whole entry): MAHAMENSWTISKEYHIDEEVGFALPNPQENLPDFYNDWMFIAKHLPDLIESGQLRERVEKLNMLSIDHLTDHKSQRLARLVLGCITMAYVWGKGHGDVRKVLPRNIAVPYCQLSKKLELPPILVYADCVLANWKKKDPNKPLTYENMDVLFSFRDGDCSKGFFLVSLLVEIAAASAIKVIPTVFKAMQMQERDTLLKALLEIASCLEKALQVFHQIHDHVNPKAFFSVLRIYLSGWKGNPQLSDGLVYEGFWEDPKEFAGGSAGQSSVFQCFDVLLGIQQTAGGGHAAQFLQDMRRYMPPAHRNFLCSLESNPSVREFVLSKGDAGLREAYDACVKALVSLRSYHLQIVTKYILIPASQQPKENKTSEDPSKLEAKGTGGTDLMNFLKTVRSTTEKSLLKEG
Method: HeLa Cell-Based IDO1 Kyn (Kynurenine) Production Assay:
The inhibitory activity of IDO1 inhibitors is determined by using a colorimetric reaction to measure Kyn generated from L-Trp (L-Tryptophon) oxidation by cellular IDO1 in HeLa cells after induction of IDO1 expression by IFN-γ. Hela cells were obtained from the American Type Culture Collection and recovered in 10% FBS-containing phenol red-free DMEM medium. Cells were plated onto a 96-well plate (100 μl/well) at 8000 cells per well and kept at 37° C. in a humidified incubator supplied with 5% CO2. 4 hours later, Human recombinant IFN-γ (8901SC, CST) was added to cells (final concentration 100 ng/mL) to stimulate endogenous IDO1. Compounds at different concentrations diluted in dimethylsulfoxide (DMSO) were added simultaneously with IFN-γ and 0.4 mM L-Trp. Cells were kept at 37° C. in a humidified incubator supplied with 5% CO2. After 48 hours of incubation, 100 μl supernatant from each well was removed to a new plate. The protein in the medium was precipitated with the addition of 8 μl 6N trichloroacetic acid. The plate was incubated at 60° C. for 30 minutes and then centrifugation at 2500 rpm for 10 minutes to remove sediments. 80 μl supernatants were carefully removed to a new clean plate and added with an equal volume of 2% 4-(Dimethylamino)benzaldehyde (D2004, Sigma) dissolved in glacial acetic acid. The absorbance at 480 nm wavelength derived from Kyn was measured using a PHERAstar FS plate reader (BMG LABTECH). The IC50 for each compound was derived from fitting the dose-response data to the four-parameter logistic model by using XLfit software (IDBS).

[1] = HeLa cells, IDO1 induced by IFN-γ, 0.4 mM L-Trp, 48 hours incubation, Kyn absorbance at 480 nm, read-out: Cell-Based EC50 (nM) Hela IDO1

Row | Compound | fraction unbound at 6 h, 5 μM (plasma protein) | EC50 (IDO1; [1]) [nM] | EC50 (IDO1) [nM]
1 | C[C@@H](c1nc2cc(F)c(F)cc2[nH]1)[C@H]1CC[C@@H](c2ccnc3ccc(F)cc32)CC1 [Example 27b, 4-((1S,4s)-4-((R)-1-(5,6-difluoro-1H-benzo[d]imidazol-2-yl)ethyl)cyclohexyl)-6-fluoroquinoline, reference compound] | 0.00034 |  | 0.42
2 | C[C@@H](c1nc2cc(C(=O)NC3CC3)ncc2[nH]1)[C@H]1CC[C@@H](c2ccnc3ccc(F)cc32)CC1 [Example 22b, N-cyclopropyl-2-((R)-1-((1s,4s)-4-(6-fluoroquinolin-4-yl)cyclohexyl)ethyl)-3H-imidazo[4,5-c]pyridine-6-carboxamide] | 0.0047 | 0.96 | 
3 | C[C@@H](c1nc2c(F)c(F)c(F)cc2[nH]1)[C@H]1CC[C@@H](c2ccnc3ccc(F)cc32)CC1 [Example 29, 6-fluoro-4-((1S,4s)-4-((R)-1-(4,5,6-trifluoro-1H-benzo[d]imidazol-2-yl)ethyl)cyclohexyl)quinoline, reference compound] | 0.0002 | 0.85 | 
4 | CNC(=O)c1ccc2[nH]c(C(C)[C@H]3CC[C@@H](c4ccnc5ccc(F)cc54)CC3)nc2c1 (some centres unmarked) [Example 1, 2-(1-((1s,4s)-4-(6-fluoroquinolin-4-yl)cyclohexyl)ethyl)-N-methyl-1H-benzo[d]imidazole-5-carboxamide] |  | 64.1 | 

More lines, in order of falling EC50 (IDO1; [1]), values ahead:

Row | fraction unbound at 6 h, 5 μM (plasma protein) | EC50 (IDO1; [1]) [nM] | Compound | EC50 (IDO1) [nM]
5 | 0.0056 | 267 | C[C@H](c1nc2cnc(C(=O)NC3CC3)cc2[nH]1)[C@H]1CC[C@@H](c2ccnc3ccc(F)cc32)CC1 [Example 22a, N-cyclopropyl-2-((S)-1-((1s,4R)-4-(6-fluoroquinolin-4-yl)cyclohexyl)ethyl)-1H-imidazo[4,5-c]pyridine-6-carboxamide] | 
6 | 0.0072 | 223 | CNC(=O)c1cc2[nH]c([C@@H](C)[C@H]3CC[C@@H](c4ccnc5ccc(F)cc54)CC3)nc2cn1 [Example 23a, 2-((S)-1-((1s,4R)-4-(6-fluoroquinolin-4-yl)cyclohexyl)ethyl)-N-methyl-1H-imidazo[4,5-c]pyridine-6-carboxamide] | 
7 | 0.002 | 26.9 | C[C@@H](c1nc2cc(C(=O)NC3CCC3)ccc2[nH]1)[C@H]1CC[C@@H](c2ccnc3ccc(F)cc32)CC1 [Example 4, N-cyclobutyl-2-((R)-1-((1s,4S)-4-(6-fluoroquinolin-4-yl)cyclohexyl)ethyl)-1H-benzo[d]imidazole-6-carboxamide] | 
8 | 0.0053 | 3.83 | CNC(=O)c1cc2[nH]c([C@H](C)[C@H]3CC[C@@H](c4ccnc5ccc(F)cc54)CC3)nc2cn1 [Example 23b, 2-((R)-1-((1s,4S)-4-(6-fluoroquinolin-4-yl)cyclohexyl)ethyl)-N-methyl-1H-imidazo[4,5-c]pyridine-6-carboxamide] | 
9 | 0.00067 | 0.55 | COC(=O)c1ccc2[nH]c([C@H](C)[C@H]3CC[C@@H](c4ccnc5ccc(F)cc54)CC3)nc2c1 [Example 28b, methyl 2-((R)-1-((1s,4S)-4-(6-fluoroquinolin-4-yl)cyclohexyl)ethyl)-1H-benzo[d]imidazole-5-carboxylate, reference compound] | 
